# Experimental data published in paper PMC11059095.
# Assay: Brønsted acid catalysed 8-endo cationic carbocyclisation of biphenyl-embedded enynes (C-C bond between tertiary carbocation from protonated alkene and distal alkyne carbon); TfOH 10 mol%, vinyl cation trapped by H2O (1.1 equiv) or internal nucleophile
# Conditions: the molecule shown is the open-chain precursor, 8-membered ring, 1,2-dichloroethane, 50.0 mM, 60.0 °C
Structure (SMILES),"ring closure, isolated yield (2.0 h)","ring closure, isolated yield"
CC#Cc1ccccc1-c1ccccc1C=C(C)C [1b -> 3b],99%,–
CC#Cc1cc(OC)ccc1-c1ccccc1C=C(C)C [1s -> 3s],70%,–
COc1cccc(CC#Cc2ccccc2-c2ccccc2C=C(C)C)c1 [1v -> 6v],–,29%
CC#Cc1ccccc1-c1ccc(OC)cc1C=C(C)C [1r -> 3r],82%,–
CC#Cc1cc(Cl)ccc1-c1ccccc1C=C(C)C [1q -> 3q],95%,–
CC(C)=Cc1ccccc1-c1ccccc1C#CCCO [1u -> 6u],–,31%
CC#Cc1cc(OC)c(C)c(OC)c1-c1cc(Cl)ccc1C=C(C)C [1t -> 3t],45%,–
CC#Cc1ccccc1-c1cc(Cl)ccc1C=C(C)C [1p -> 3p],99%,–
